Holding throughout (format): in vivo
In test [1] the test system is giant foxtail (Setaria faberii). As to the kind of experiment: Test A postemergence. The settings on record: Setaria faberi, post-emergence, 240 h, postemergence. Summed up: (§1)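 Preemergence soil spray on seeded pots or post-emergence spray on 1–2 leaf plants, in loam–sand blend. Greenhouse ~10 d. Visual rating 0–100 against untreated plants.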
In test [2] the test system is barnyardgrass (Echinochloa crus-galli). As to the kind of experiment: Test A postemergence. Particulars: Echinochloa crus-galli, post-emergence, 240 h, postemergence. Summed up: as §1
Test [3] deals with ryegrass, Italian (Italian ryegrass, Lolium multiflorum). As to the kind of experiment: Test A postemergence. Particulars: Lolium multiflorum, post-emergence, 240 h, postemergence. Summed up: as §1
Test [4] has as its system pigweed (Amaranthus retroflexus). As to the kind of experiment: Test A postemergence. Particulars: Amaranthus retroflexus, post-emergence, 240 h, postemergence. Summed up:
as §1

In test [5] the test system is ragweed (common ragweed, Ambrosia elatior). Briefly: Test A preemergence. The settings on record: Ambrosia artemisiifolia, pre-emergence, 240 h, preemergence, 0 to 100 scale where 0 is no effect and 100 is complete control, read-out: Ragweed plant response rating. The procedure, abridged: as §1
The subject of test [6] is giant foxtail (Setaria faberii). Briefly: Test A preemergence. Particulars: Setaria faberi, pre-emergence, 240 h, preemergence, 0 to 100 scale where 0 is no effect and 100 is complete control, read-out: Foxtail, Giant plant response rating. Summed up:
as §1

For test [7], the system named is barnyardgrass (Echinochloa crus-galli). Briefly: Test A preemergence. Particulars: Echinochloa crus-galli, pre-emergence, 240 h, preemergence, 0 to 100 scale where 0 is no effect and 100 is complete control, read-out: Barnyardgrass plant response rating. The procedure, abridged:
as §1

A further test has as its system Kochia (Kochia scoparia). Briefly: Test A preemergence. The settings on record: Bassia scoparia, pre-emergence, 240 h, preemergence, 0 to 100 scale where 0 is no effect and 100 is complete control, read-out: Kochia plant response rating. Summed up: as §1
Test [8] deals with ryegrass, Italian (Italian ryegrass, Lolium multiflorum). As to the kind of experiment: Test A preemergence. Particulars: Lolium multiflorum, pre-emergence, 240 h, preemergence, 0 to 100 scale where 0 is no effect and 100 is complete control, read-out: Ryegrass, Italian plant response rating. Summed up:
as §1

Test [9] deals with pigweed (Amaranthus retroflexus). Briefly: Test A preemergence. Particulars: Amaranthus retroflexus, pre-emergence, 240 h, preemergence, 0 to 100 scale where 0 is no effect and 100 is complete control, read-out: Pigweed plant response rating.
In test [10] the test system is ducksalad (Heteranthera limosa). Briefly: Test B flooded paddy test. The settings on record: Heteranthera limosa, 250 g ai/ha, Flood; 0 to 100 scale where 0 is no effect and 100 is complete control; read-out: Ducksalad plant response rating. Summed up:
(§2)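 Percent control, visually estimated after 13–15 d in the greenhouse on a 0–100 basis, compares treated pots with untreated ones; compound was put into paddy water 3 cm above the soil when plants had two leaves.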

Test [11] has as its system sedge, umbrella (small-flower umbrella sedge, Cyperus difformis). Briefly: Test B flooded paddy test. Particulars: Cyperus difformis, 250 g ai/ha, Flood; 0 to 100 scale where 0 is no effect and 100 is complete control; read-out: Sedge, Umbrella plant response rating. The procedure, abridged:
as §2

Test [12] deals with barnyardgrass (Echinochloa crus-galli). As to the kind of experiment: Test B flooded paddy test. The settings on record: Echinochloa crus-galli, 250 g ai/ha, Flood; 0 to 100 scale where 0 is no effect and 100 is complete control; read-out: Barnyardgrass plant response rating. The procedure, abridged: as §2
The next test relates to rice (Oryra sativa). Briefly: Test B flooded paddy test. The settings on record: Oryza sativa, 250 g ai/ha, Flood; 0 to 100 scale where 0 is no effect and 100 is complete control; read-out: Rice plant response rating. The procedure, abridged:
as §2

The mark [13] stands for this setting: 125 g ai/ha, visual injury rating, approximately 10 d.

`O=C1NC[C@H](c2ccc(C(F)(F)F)cc2)C1C(=O)Nc1ccccc1CO` (stereo partly drawn) [Compound 1242]: the pest or weed control at 125 g/ha in [1] (125 g ai/ha, visual injury vs untreated controls after approx. 10 d, 0 = no effect, 100 = complete control, read-out: Foxtail, Giant plant response rating (0 to 100 scale)) was determined as 20%; in test [2] (125 g ai/ha, visual injury vs untreated controls after approx. 10 d, 0 = no effect, 100 = complete control, read-out: Barnyardgrass plant response rating (0 to 100 scale)), 20%; in test [3] (125 g ai/ha, visual injury vs untreated controls after approx. 10 d, 0 = no effect, 100 = complete control, read-out: Ryegrass, Italian plant response rating (0 to 100 scale)), 0%; in [4] (125 g ai/ha, visual injury vs untreated controls after approx. 10 d, 0 = no effect, 100 = complete control, read-out: Pigweed plant response rating (0 to 100 scale)), 0%; in test [5] (setting [13]) it was 0%; in test [6] (setting [13]) it was 30%. Besides, the pest or weed control at 125 g/ha in [7] (setting [13]) is 20%; with Kochia (Kochia scoparia) (setting [13]), 0%; in [8] (setting [13]), 0%; in [9] (setting [13]), 0%. Moreover, the pest or weed control at 500 g/ha in test [1] (500 g ai/ha, 0 to 100 scale, 0 is no effect, 100 is complete control, read-out: Foxtail, Giant plant response rating) was found to be 50%; in test [2] (500 g ai/ha, 0 to 100 scale, 0 is no effect, 100 is complete control, read-out: Barnyardgrass plant response rating), 40%; in test [3] (500 g ai/ha, 0 to 100 scale, 0 is no effect, 100 is complete control, read-out: Ryegrass, Italian plant response rating) it was 0%; in test [4] (500 g ai/ha, 0 to 100 scale, 0 is no effect, 100 is complete control, read-out: Pigweed plant response rating) it was 0%; in test [5] (500 g ai/ha), 0%; in test [6] (500 g ai/ha) it was 80%. Besides, the pest or weed control at 500 g/ha was 60% in test [7] (500 g ai/ha), 0% with Kochia (Kochia scoparia) (500 g ai/ha), 0% in test [8] (500 g ai/ha) and 0% in test [9] (500 g ai/ha). Moreover, the pest or weed control at 250 g/ha in [10] was 75%; in test [11] it was 0%; in [12], 0%; in the test on rice (Oryra sativa) it was 0%.

The record behind these values is patent US12077503B2, “Substituted cyclic amides and their use as herbicides” (FMC CORPORATION, priority 2015, dated 2024).
